Assay results as given in US20070293422A1, “Beta-Amyloid Inhibitors and Use Thereof” (priority 2003, published 2007).
pIC50: −log10 of the molar value.

Columns and labels:
Aβ1-42 (SEQ ID NO: 11) = biological target: T1, Aβ1-42 (SEQ ID NO: 11) (Homo sapiens, UniProt P05067); assay: Thioflavine T fluorescence assay of Aβ1-42 amyloid fibril formation (fibrillogenesis assay); assay type: biochemical
T1 construct: purchased BACHEM H-1368.1000
Protocol: The percentage of formed fibrils after 2 days incubation with 110 μM of Aβ1-42 (SEQ ID NO: 11) at 37° C. is represented versus the concentration of the peptides of the invention (in μM). 100% of formed fibrils correspond to the fibrils formed in presence of Aβ1-42 alone. Triangles represent data for pAntp (SEQ ID NO: 4) and squares represent data for pAntp-BSB1 (SEQ ID NO: 6). The percentage of formed fibrils for peptides of the invention is compared to that obtained for a known beta-sheet breaker, BSB1 of SEQ ID NO: 5 (Lozenges). Data are the result of three independent experiments in duplicate.
Amyloid formation can be quantitatively evaluated by the fluorescence emission of thioflavine T (ThT) bound to amyloid fibrils, as reported by Levine et al., 1993 and also Soto et al., 1995.
In this assay, peptides of the invention were solubilized in water at different concentration in small Eppendorff tubes and lyophilized.
Ab1-42 (a synthetic peptide with the same sequence as the one deposited in the amyloid plaques in Alzheimer's brain, SEQ ID NO: 11) was solubilized at the concentration of 1 mg/ml in 2 mM NaOH. Aliquots were lyophilized (storage −80° C.). Several aliquots of Ab1-42 at a concentration of 0.5 mg/ml ([…]) were prepared in 0.1M Tris, pH 7.4 and incubated for 2 or 5 days at 37° C. in the absence or in the presence of different concentrations of the pre-lyophilized peptides of the invention (ranged from […]). Thioflavin T was purchased from Sigma (T-3516). For example, 120 μg of Ab1-42 and mixed to 1 μl of DMSO and 239 μl of 0.1M Tris, pH 7.4. From this solution, 120 μl are incubated 5 days at 37° C. and 120 μl are used to solubilize the peptide of the invention at the desired concentration and incubated 5 days at 37° C.
At the end of the incubation period, 50 mM Glycine, pH 9.2 and 2 μM ThT are added to the incubated mixture described above in a final volume of […] (850 μl of pure water, 200 μl of 50 mM Glycine, pH 9.2 and 40 μl of Thioflavin T (1 mM in pure water) are added to 60 μl of sample.
Fluorescence is measured at excitation 435 nm and emission 485 nm in a Perkin Elmer, model LS50B fluorescence spectrometer. Measurements are carried out after the signal is stable for at least 1-2 min. The initial value of fluorescence represents the fluorescence obtained with Ab1-42 peptide alone (highest concentration of fibrils) representing 100% of formed fibrils.
The percentage of inhibition of Ab1-42 fibril formation induced by compounds of the invention can be calculated using an analytical method such as described in Soto et al., 1998.

PC12 cells = assay type: cell-based
Protocol: Amyloid fibrils are cytotoxic, inducing cell death by apoptosis (Levine et al., 1993). The ability of the compounds of the invention in preventing the amyloid formation can be evaluated by measuring the decrease in the amyloid fibrils cytotoxicity in a cell assay. Toxicity was measured by comparing the effects of samples of Ab1-42 (SEQ ID NO: 11) alone or of mixtures of Ab1-42 combined with the peptides of the invention, on the reduction of the redox active dye, 3-(4,5-dimethylthiazol-2-yl)-2,5-diphenyltetrazolium bromide (MTT) by PC12 cells. […] The cells are incubated for 24 h and thereafter the cellular viability was evaluated using the MTT kit (Kit I (MTT), No. 1 465 007 Roche, Mannheim, Germany). Levels of reduced MTT are determined by measuring the difference in absorbance at 595 and 650 nm using a microplate reader and the extend of cellular viability is then deduced Maximum fibril inhibition is obtained at a peptide concentration of 8 mM for the reference compound of SEQ ID NO: 5 in the fibrillogenesis assay described above. […] Cellular viability is then measured for peptides of the invention by adding the fibrillogenesis assay mixtures containing 1 mM of peptide of the invention (concentration where maximum fibril inhibition is obtained for peptides of the invention) to the PC12 cells after a 20-fold dilution. […]

T1 sequence (P05067 672-713): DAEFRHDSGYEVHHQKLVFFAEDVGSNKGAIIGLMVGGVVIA

Compound | inhibition (Aβ1-42 (SEQ ID NO: 11); 500 μM peptide, Ab1-42 in 0.1M Tris pH 7.4, 37° C., read-out: % Inhibition of amyloid fibrils) | inhibition of the fibrillogenesis process (FIG. 1) (Aβ1-42 (SEQ ID NO: 11); 2 days incubation with 110 μM Aβ1-42 at 37° C.) | pIC50 (Aβ1-42 (SEQ ID NO: 11); ThT fluorescence, Ab1-42 0.5 mg/ml, 37° C., read-out: IC50 (inhibition of Ab1-42 fibril formation)) | inhibiting effect on beta-amyloid cellular toxicity compared with BSB1 (PC12 cells; PC12 cells, MTT) | % cell viability (PC12 cells; rat, 24 h, 50 µM) | % Inhibition of amyloid fibrils (Aβ1-42 (SEQ ID NO: 11); 500 μM peptide, Ab1-42 0.5 mg/ml in 0.1M Tris pH 7.4, 37° C.) | peptide concentration above which the % of fibrils reaches a plateau (Aβ1-42 (SEQ ID NO: 11); FIG. 1, 110 μM Aβ1-42, 37° C.) | peptide concentration at which maximum fibril inhibition is obtained (Aβ1-42 (SEQ ID NO: 11); fibrillogenesis assay)
CC[C@H](C)[C@H](NC(=O)[C@H](CCCCN)NC(=O)[C@@H](NC(=O)[C@H](CCC(N)=O)NC(=O)[C@@H](N)CCCNC(=N)N)[C@@H](C)CC)C(=O)N[C@@H](Cc1c[nH]c2ccccc12)C(=O)N[C@@H](Cc1ccccc1)C(=O)N[C@@H](CCC(N)=O)C(=O)N[C@@H](CC(N)=O)C(=O)N[C@@H](CCCNC(=N)N)C(=O)N[C@@H](CCCNC(=N)N)C(=O)N[C@@H](CCSC)C(=O)N[C@@H](CCCCN)C(=O)N[C@@H](Cc1c[nH]c2ccccc12)C(=O)N[C@@H](CCCCN)C(=O)N[C@@H](CCCCN)C(=O)N[C@@H](CC(C)C)C(=O)N1CCC[C@H]1C(=O)N[C@@H](Cc1ccccc1)C(=O)N[C@@H](Cc1ccccc1)C(=O)N[C@@H](CC(=O)O)C(N)=O [SEQ ID NO: 6] | 57% | high degree of inhibition | ~4.01 | higher inhibiting effect on the beta-amyloid cellular toxicity than the beta-sheet breaker itself | 166% |  |  | 
SEQ ID NO: 5: known beta-sheet breaker BSB1 (WO 01/34631), reference peptide (Ac-LPFFD-NH2) [reference compound] |  |  |  |  |  | 15% | does not reach a plateau limit | 8 mM
